Results: patent US20250276073A1, “BICYCLIC PEPTIDE LIGANDS SPECIFIC FOR TRANSFERRIN RECEPTOR 1 (TfR1)” (BicycleTx Limited, priority 2022, published 2025)
pKd: −log10 of the molar value. Starred links: 1 amine or outer side, 2 acyl side, 3 side chain; linkers in the order of their positions; H or OH if unused. Positions of bridges follow the written chain, without caps; N, C: chain ends. Non-standard residues stand in square brackets, D forms with d. Residues, ends and D or L forms follow the SMILES beside them. TATB = O=C(C[*:1])N1CN(C(=O)C[*:2])CN(C(=O)C[*:3])C1; Hyp = O=C(O)[C@@H]1C[C@@H](O)CN1; Tle = CC(C)(C)[C@H](N)C(=O)O

These compounds were tested against Human TfR1 (Homo sapiens, UniProt P02786) (assay: biochemical).
Chain of Human TfR1 (P02786 89-760): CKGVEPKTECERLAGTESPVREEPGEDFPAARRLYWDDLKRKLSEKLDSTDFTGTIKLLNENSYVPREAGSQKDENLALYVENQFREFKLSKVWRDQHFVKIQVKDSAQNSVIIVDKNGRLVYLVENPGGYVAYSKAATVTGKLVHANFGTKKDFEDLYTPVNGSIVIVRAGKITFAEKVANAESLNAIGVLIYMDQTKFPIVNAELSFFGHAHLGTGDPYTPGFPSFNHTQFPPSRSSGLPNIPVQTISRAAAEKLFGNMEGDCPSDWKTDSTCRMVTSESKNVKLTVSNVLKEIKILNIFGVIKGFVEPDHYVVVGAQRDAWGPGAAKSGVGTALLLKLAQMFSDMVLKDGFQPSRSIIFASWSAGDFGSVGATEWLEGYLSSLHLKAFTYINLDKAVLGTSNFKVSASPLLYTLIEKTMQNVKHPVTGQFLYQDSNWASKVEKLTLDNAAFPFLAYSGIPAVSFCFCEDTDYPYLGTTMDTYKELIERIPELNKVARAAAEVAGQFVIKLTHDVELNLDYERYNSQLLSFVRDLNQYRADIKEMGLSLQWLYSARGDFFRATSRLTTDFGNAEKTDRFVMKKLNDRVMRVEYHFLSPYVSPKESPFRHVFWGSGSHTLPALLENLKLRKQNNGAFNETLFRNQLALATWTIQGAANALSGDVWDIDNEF
Method: Recombinant human and cynomolgus TfR1 were received from Bicycle as Hiss-tagged TfR1 (a.a. 89-760) (ACRO Biosystems, CD1-H5243 and TFR-C524a).
For analysis of TfR1 peptide binding, a Biacore T200 or S200 instrument was used utilising a capture/coupling approach with a Cytiva NTA chip at 25° C. with 25 mM HEPES, 0.1M NaCl, 0.05% Tween 20 pH 7.4 as the running buffer. Immobilisation was carried out as follows. The chip was pre-equilibrated with an injection of 500 mM EDTA (pH 8), before activation with 5 mM NiSO4. The surface was then activated using standard amine-coupling chemistry. Briefly, the carboxymethyl dextran surface was activated with a 1:1 ratio of 0.4 M 1-ethyl-3-(3-dimethylaminopropyl) carbodiimide hydrochloride (EDC)/0.1 M N-hydroxy succinimide (NHS). The TfR1 protein (human or cynomolgus) was then captured onto the activated surface after dilution into running buffer to 200 nM and 250 nM respectively. Residual activated groups were blocked with a 7 min injection of 1 M ethanolamine (pH 8.5):HBS-N(1:1). Reference surfaces were activated and blocked as above with no TfR1 protein capture. Capture levels were in the range of 1,500-5,000 RU dependent upon the individual study Buffer was changed to 25 mM HEPES, 0.1M NaCl, 0.05% Tween 20 pH 7.4 1% DMSO.
A dilution series of test peptides was prepared in this buffer with a top peptide concentration of 5 μM and 6 further 2-fold dilutions. The SPR analysis was run at 25° C. at a flow rate of 30 μl/min with 160 seconds association and 700-800 seconds dissociation. Data were corrected for DMSO excluded volume effects. All data were double-referenced for blank injections and reference surface using standard processing procedures and data processing and kinetic fitting were performed using Scrubber software, version 2.0c (BioLogic Software). Data were fitted using simple 1:1 binding model allowing for mass transport effects where appropriate.

CC(=O)N[C@H]1CSCC(=O)N2CN3CN(C2)C(=O)CSC[C@@H](C(=O)N[C@@H](CCC(=O)O)C(=O)N2CCC[C@H]2C(=O)N[C@@H](Cc2c[nH]c4ccccc24)C(N)=O)NC(=O)[C@H](Cc2ccc(O)cc2)NC(=O)[C@H](CO)NC(=O)[C@H](C(C)(C)C)NC(=O)[C@H](CSCC3=O)NC(=O)CNC(=O)[C@H](CC(C)C)NC(=O)[C@H](Cc2ccc(O)cc2)NC(=O)[C@H](C)NC(=O)[C@H](CC(=O)O)NC(=O)[C@@H]2C[C@@H](O)CN2C(=O)[C@@H]2C[C@@H](O)CN2C1=O [BCY23180, C[HyP][HyP]DAYLGC[tBuGly]SYCEPW] and CC(=O)N[C@H]1CSCC(=O)N2CN3CN(C2)C(=O)CSC[C@@H](C(=O)N[C@@H](CCC(=O)O)C(=O)N2CCC[C@H]2C(=O)N[C@@H](Cc2c[nH]c4ccccc24)C(N)=O)NC(=O)[C@H](Cc2ccc(O)cc2)NC(=O)[C@H](CO)NC(=O)[C@H](C(C)(C)C)NC(=O)[C@H](CSCC3=O)NC(=O)CNC(=O)[C@H](CCC(N)=O)NC(=O)[C@H](Cc2ccc(O)cc2)NC(=O)[C@H](C)NC(=O)[C@H](CC(=O)O)NC(=O)[C@@H]2C[C@@H](O)CN2C(=O)[C@@H]2CCCN2C1=O [BCY23223, CP[HyP]DAYQGC[tBuGly]SYCEPW] (Ac-CP[Hyp]DAYQGC[Tle]SYCEPW-NH2; linker 1-9-13 via TATB) are the same in pKd: 7.30 for the first, 7.30 for the second.

CC(=O)N[C@H]1CSCC(=O)N2CN3CN(C2)C(=O)CSC[C@@H](C(=O)N[C@@H](CCC(=O)O)C(=O)N2CCC[C@H]2C(=O)N[C@@H](Cc2ccc(O)cc2)C(N)=O)NC(=O)[C@H](Cc2ccc(O)cc2)NC(=O)[C@H](CO)NC(=O)[C@H](C(C)(C)C)NC(=O)[C@H](CSCC3=O)NC(=O)CNC(=O)[C@H](CC(C)C)NC(=O)[C@H](Cc2ccc(O)cc2)NC(=O)[C@H](C)NC(=O)[C@H](CC(=O)O)NC(=O)[C@@H]2C[C@@H](O)CN2C(=O)[C@@H]2CCCN2C1=O [BCY23207, CP[HyP]DAYLGC[tBuGly]SYCEPY] and CC(=O)N[C@H]1CSCC(=O)N2CN3CN(C2)C(=O)CSC[C@@H](C(=O)N[C@@H](CCC(=O)O)C(=O)N2CCC[C@H]2C(=O)N[C@@H](CCc2ccc(O)cc2)C(N)=O)NC(=O)[C@H](Cc2ccc(O)cc2)NC(=O)[C@H](CO)NC(=O)[C@H](C(C)(C)C)NC(=O)[C@H](CSCC3=O)NC(=O)CNC(=O)[C@H](CC(C)C)NC(=O)[C@H](Cc2ccc(O)cc2)NC(=O)[C@H](C)NC(=O)[C@H](CC(=O)O)NC(=O)[C@@H]2C[C@@H](O)CN2C(=O)[C@@H]2CCCN2C1=O [BCY23211, CP[HyP]DAYLGC[tBuGly]SYCEP[hTyr]] are the same in pKd: 8.11 for the first, 8.11 for the second.
